ChEMBL document CHEMBL3885861, “Open TG-GATES”

Species on record: Rattus norvegicus
Experiment: Open TG-GATES - Regimen: Daily Repeat
Assay type: toxicity, organism-based, Sprague-Dawley
Design: regimen Daily Repeat, gender Male, age 6 weeks
Details: in vivo, po, route gavage; for APTT / Bas / Eos / Fbg / Hb / Ht / Lym / MCH / MCHC / MCV / Mono / Neu / PT / Plat / RBC / Ret / WBC: tissue Blood; for KIDNEY_L / KIDNEY_R / KIDNEY_TOTAL: tissue Kidney; for LIVER: tissue Liver; for ALP / AST / BUN / CRE / Ca / Cl / DBIL / GLC / IP / K / LDH / Na / PL / RALB / TBIL / TC / TG / TP / gamma-GTP: tissue Plasma
[1] = 0 mg/kg, 72 h, dose level Control, time 3 day
[2] = 0 mg/kg, […], dose level Control, time 7 day
[3] = 0 mg/kg, […], dose level Control, time 14 day
[4] = 0 mg/kg, […], dose level Control, time 28 day
[5] = 100 mg/kg, 72 h, dose level Low, time 3 day
[6] = 100 mg/kg, […], dose level Low, time 7 day
[7] = 100 mg/kg, […], dose level Low, time 14 day
[8] = 100 mg/kg, […], dose level Low, time 28 day

Which results are given for COc1ccc2[nH]c([S+]([O-])Cc3ncc(C)c(OC)c3C)nc2c1 (configuration not stated) [OMEPRAZOLE]?
TERMINAL_BW [1]: 237.1 g; APTT [1]: 19.5 s; Bas [1]: 0%; Eos [1]: 1.2%; Fbg [1]: 210.6 mg/dL; Hb [1]: 13.1 g/dL; Ht [1]: 38%; Lym [1]: 80.8%; MCH [1]: 21.2 pg; MCHC [1]: 34.4%; MCV [1]: 61.6 fL; Mono [1]: 3%; Neu [1]: 14.8%; PT [1]: 12.2 s; Plat [1]: 128.5 x10_4/uL; RBC [1]: 616.6 x10_4/ul; Ret [1]: 5.4%; WBC [1]: 91.3 x10_2/uL; KIDNEY_L [1]: 1 g; KIDNEY_R [1]: 1.1 g; KIDNEY_TOTAL [1]: 2.1 g; LIVER [1]: 11.7 g; ALP [1]: 960.2 IU/L; AST [1]: 66.4 IU/L; BUN [1]: 15.2 mg/dL; CRE [1]: 0.4 mg/dL; Ca [1]: 10.7 mg/dL; Cl [1]: 102.2 meq/L; DBIL [1]: 0.07 mg/dL; GLC [1]: 233.8 mg/dL; IP [1]: 7 mg/dL; K [1]: 3.6 meq/L; LDH [1]: 162.8 IU/L; Na [1]: 141.6 meq/L; PL [1]: 144.4 mg/dL; RALB [1]: 3.3 g/dL; TBIL [1]: 0.1 mg/dL; TC [1]: 72.2 mg/dL; TG [1]: 91.6 mg/dL; TP [1]: 5.6 g/dL; gamma-GTP [1]: 1.2 IU/L; TERMINAL_BW [2]: 272.8 g; TERMINAL_BW [3]: 317.5 g; TERMINAL_BW [4]: 379.8 g; APTT [2]: 20.8 s; Bas [2]: 0%; Eos [2]: 1%; Fbg [2]: 226.4 mg/dL; Hb [2]: 13.9 g/dL; Ht [2]: 40.3%; Lym [2]: 79.2%; MCH [2]: 20.8 pg; MCHC [2]: 34.5%; MCV [2]: 60.2 fL; Mono [2]: 3%; Neu [2]: 16.2%; PT [2]: 11.9 s; Plat [2]: 124.2 x10_4/uL; RBC [2]: 669.6 x10_4/ul; Ret [2]: 4.8%; WBC [2]: 124.1 x10_2/uL; APTT [3]: 19.5 s; Bas [3]: 0%; Eos [3]: 1%; Fbg [3]: 215.4 mg/dL; Hb [3]: 14.7 g/dL; Ht [3]: 42.6%; Lym [3]: 79%; MCH [3]: 20.8 pg; MCHC [3]: 34.6%; MCV [3]: 59.9 fL; Mono [3]: 2.6%; Neu [3]: 16.2%; PT [3]: 12.3 s; Plat [3]: 123.5 x10_4/uL; RBC [3]: 711 x10_4/ul; Ret [3]: 3.9%; WBC [3]: 94.4 x10_2/uL; APTT [4]: 20.9 s; Bas [4]: 0%; Eos [4]: 1%; Fbg [4]: 228.8 mg/dL; Hb [4]: 15.6 g/dL; Ht [4]: 45%; Lym [4]: 83.2%; MCH [4]: 19.4 pg; MCHC [4]: 34.8%; MCV [4]: 55.9 fL; Mono [4]: 2%; Neu [4]: 13%; PT [4]: 12.4 s; Plat [4]: 110.6 x10_4/uL; RBC [4]: 804.8 x10_4/ul; Ret [4]: 2.2%; WBC [4]: 102.7 x10_2/uL; KIDNEY_L [2]: 1.2 g; KIDNEY_R [2]: 1.2 g; KIDNEY_TOTAL [2]: 2.3 g; KIDNEY_L [3]: 1.3 g; KIDNEY_R [3]: 1.3 g; KIDNEY_TOTAL [3]: 2.5 g; KIDNEY_L [4]: 1.3 g; KIDNEY_R [4]: 1.3 g; KIDNEY_TOTAL [4]: 2.6 g; LIVER [2]: 13.4 g; LIVER [3]: 13.5 g; LIVER [4]: 14.7 g; ALP [2]: 908.8 IU/L; AST [2]: 73.8 IU/L; BUN [2]: 16.8 mg/dL; CRE [2]: 0.4 mg/dL; Ca [2]: 10.8 mg/dL; Cl [2]: 100.8 meq/L; DBIL [2]: 0.09 mg/dL; GLC [2]: 205.2 mg/dL; IP [2]: 7.3 mg/dL; K [2]: 3.9 meq/L; LDH [2]: 225.8 IU/L; Na [2]: 140 meq/L; PL [2]: 168.4 mg/dL; RALB [2]: 3.3 g/dL; TBIL [2]: 0.1 mg/dL; TC [2]: 78.8 mg/dL; TG [2]: 144.6 mg/dL; TP [2]: 5.7 g/dL; gamma-GTP [2]: 0.8 IU/L; ALP [3]: 734.6 IU/L; AST [3]: 61.4 IU/L; BUN [3]: 17.2 mg/dL; CRE [3]: 0.5 mg/dL; Ca [3]: 10.6 mg/dL; Cl [3]: 102 meq/L; DBIL [3]: 0.08 mg/dL; GLC [3]: 222.6 mg/dL; IP [3]: 6.5 mg/dL; K [3]: 3.4 meq/L; LDH [3]: 171 IU/L; Na [3]: 139.8 meq/L; PL [3]: 139.6 mg/dL; RALB [3]: 3.4 g/dL; TBIL [3]: 0.1 mg/dL; TC [3]: 69 mg/dL; TG [3]: 95.4 mg/dL; TP [3]: 5.7 g/dL; gamma-GTP [3]: 1 IU/L; ALP [4]: 583 IU/L; AST [4]: 64.8 IU/L; BUN [4]: 16.6 mg/dL; CRE [4]: 0.5 mg/dL; Ca [4]: 10.7 mg/dL; Cl [4]: 102.6 meq/L; DBIL [4]: 0.078 mg/dL; GLC [4]: 235.4 mg/dL; IP [4]: 5.8 mg/dL; K [4]: 3.8 meq/L; LDH [4]: 142.8 IU/L; Na [4]: 141.2 meq/L; PL [4]: 137.8 mg/dL; RALB [4]: 3.4 g/dL; TBIL [4]: 0.1 mg/dL; TC [4]: 67.8 mg/dL; TG [4]: 104.8 mg/dL; TP [4]: 6 g/dL; gamma-GTP [4]: 0.8 IU/L; TERMINAL_BW [5]: 240.6 g; APTT [5]: 19 s; Bas [5]: 0%; Eos [5]: 1%; Fbg [5]: 214.2 mg/dL; Hb [5]: 13.1 g/dL; Ht [5]: 38.3%; Lym [5]: 77%; MCH [5]: 21 pg; MCHC [5]: 34.2%; MCV [5]: 61.4 fL; Mono [5]: 3.4%; Neu [5]: 18.6%; PT [5]: 12.3 s; Plat [5]: 127.7 x10_4/uL; RBC [5]: 624 x10_4/ul; Ret [5]: 5.2%; WBC [5]: 119.7 x10_2/uL; KIDNEY_L [5]: 1.1 g; KIDNEY_R [5]: 1.1 g; KIDNEY_TOTAL [5]: 2.2 g; LIVER [5]: 12.4 g; ALP [5]: 887.8 IU/L; AST [5]: 67.8 IU/L; BUN [5]: 15.2 mg/dL; CRE [5]: 0.3 mg/dL; Ca [5]: 10.6 mg/dL; Cl [5]: 101.8 meq/L; DBIL [5]: 0.08 mg/dL; GLC [5]: 220.6 mg/dL; IP [5]: 8.8 mg/dL; K [5]: 3.8 meq/L; LDH [5]: 157.2 IU/L; Na [5]: 141.4 meq/L; PL [5]: 145 mg/dL; RALB [5]: 3.4 g/dL; TBIL [5]: 0.1 mg/dL; TC [5]: 72.6 mg/dL; TG [5]: 99.2 mg/dL; TP [5]: 5.6 g/dL; gamma-GTP [5]: 1.2 IU/L; TERMINAL_BW [6]: 271.5 g; TERMINAL_BW [7]: 323 g; TERMINAL_BW [8]: 390.5 g; APTT [6]: 20 s; Bas [6]: 0%; Eos [6]: 1%; Fbg [6]: 221 mg/dL; Hb [6]: 13.5 g/dL; Ht [6]: 39.5%; Lym [6]: 82%; MCH [6]: 20.7 pg; MCHC [6]: 34.2%; MCV [6]: 60.6 fL; Mono [6]: 3.4%; Neu [6]: 13.2%; PT [6]: 12.2 s; Plat [6]: 132.7 x10_4/uL; RBC [6]: 652 x10_4/ul; Ret [6]: 4.7%; WBC [6]: 114.9 x10_2/uL; APTT [7]: 20.2 s; Bas [7]: 0%; Eos [7]: 0.8%; Fbg [7]: 208.4 mg/dL; Hb [7]: 14.2 g/dL; Ht [7]: 40.8%; Lym [7]: 82.8%; MCH [7]: 20.5 pg; MCHC [7]: 34.7%; MCV [7]: 59.1 fL; Mono [7]: 2.2%; Neu [7]: 13.6%; PT [7]: 12.1 s; Plat [7]: 133 x10_4/uL; RBC [7]: 691 x10_4/ul; Ret [7]: 4.1%; WBC [7]: 101.4 x10_2/uL; APTT [8]: 21.2 s; Bas [8]: 0%; Eos [8]: 1.2%; Fbg [8]: 210.4 mg/dL; Hb [8]: 15.1 g/dL; Ht [8]: 43.9%; Lym [8]: 79.6%; MCH [8]: 18.6 pg; MCHC [8]: 34.3%; MCV [8]: 54.3 fL; Mono [8]: 2.2%; Neu [8]: 16.6%; PT [8]: 12.3 s; Plat [8]: 106.5 x10_4/uL; RBC [8]: 809.8 x10_4/ul; Ret [8]: 2.6%; WBC [8]: 100.5 x10_2/uL; KIDNEY_L [6]: 1.1 g; KIDNEY_R [6]: 1.1 g; KIDNEY_TOTAL [6]: 2.2 g; KIDNEY_L [7]: 1.3 g; KIDNEY_R [7]: 1.3 g; KIDNEY_TOTAL [7]: 2.5 g; KIDNEY_L [8]: 1.4 g; KIDNEY_R [8]: 1.3 g; KIDNEY_TOTAL [8]: 2.7 g; LIVER [6]: 13.3 g; LIVER [7]: 14.7 g; LIVER [8]: 16.4 g; ALP [6]: 805 IU/L; AST [6]: 65 IU/L; BUN [6]: 15.6 mg/dL; CRE [6]: 0.4 mg/dL; Ca [6]: 10.6 mg/dL; Cl [6]: 101.4 meq/L; DBIL [6]: 0.066 mg/dL; GLC [6]: 200.4 mg/dL; IP [6]: 8.3 mg/dL; K [6]: 4 meq/L; LDH [6]: 229.6 IU/L; Na [6]: 140.8 meq/L; PL [6]: 150 mg/dL; RALB [6]: 3.4 g/dL; TBIL [6]: 0.1 mg/dL; TC [6]: 77.8 mg/dL; TG [6]: 85.2 mg/dL; TP [6]: 5.7 g/dL; gamma-GTP [6]: 0.8 IU/L; ALP [7]: 771.6 IU/L; AST [7]: 66.4 IU/L; BUN [7]: 15.8 mg/dL; CRE [7]: 0.5 mg/dL; Ca [7]: 10.3 mg/dL; Cl [7]: 101.4 meq/L; DBIL [7]: 0.074 mg/dL; GLC [7]: 210.8 mg/dL; IP [7]: 7.9 mg/dL; K [7]: 3.7 meq/L; LDH [7]: 198.2 IU/L; Na [7]: 140.6 meq/L; PL [7]: 145.8 mg/dL; RALB [7]: 3.4 g/dL; TBIL [7]: 0.1 mg/dL; TC [7]: 73.4 mg/dL; TG [7]: 96.8 mg/dL; TP [7]: 5.8 g/dL; gamma-GTP [7]: 1 IU/L; ALP [8]: 538.6 IU/L; AST [8]: 59.2 IU/L; BUN [8]: 15.4 mg/dL; CRE [8]: 0.5 mg/dL; Ca [8]: 10.5 mg/dL; Cl [8]: 101.4 meq/L; DBIL [8]: 0.088 mg/dL; GLC [8]: 220 mg/dL; IP [8]: 7.3 mg/dL; K [8]: 3.6 meq/L; LDH [8]: 174.8 IU/L; Na [8]: 141.8 meq/L; PL [8]: 141 mg/dL; RALB [8]: 3.6 g/dL; TBIL [8]: 0.1 mg/dL; TC [8]: 69.2 mg/dL; TG [8]: 133 mg/dL; TP [8]: 6.2 g/dL
